Molecular target: Human FP Receptor (Homo sapiens (Human), UniProt P43088)
Assay: In vitro test of inhibition of human FP receptor activity, variant B-1A (PGF2α-induced calcium flux in FP-expressing CHEM1 cells)
Assay type: cell-based
Settings: calcium flux induced by 3 nM PGF2α, Fluo-8, some mean values from multiple determinations
Text: • BSA bovine serum albumin • CRTH2 chemoattractant receptor-homologous molecule expressed on T helper type 2 cells • DMEM Dulbecco's modified Eagle's medium • DMSO dimethyl sulfoxide • DP PGD2 receptor • EC50 half-maximum effective concentration • em. emission • EP PGE2 receptor • ex. excitation • FCS fetal calf serum • FP PGF2α receptor • HEPES 2-[4-(2-hydroxyethyl)piperazin-1-yl]ethanesulfonic acid • IC50 half-maximum inhibitory concentration • IP PGI2 receptor • MES 2-(N-morpholino)ethanesulfonic acid • Pen/Strep penicillin/streptomycin • PGD2 prostaglandin D2 • PGE2 prostaglandin E2 • PGF2α prostaglandin F2α • PGI2 prostaglandin […] • TC tissue culture • TP thromboxane A2 receptor • Tris tris(hydroxymethyl)aminomethane • v/v volume to volume ratio (of a solution) • w/w weight to weight ratio (of a solution) B-1.

Sequence of Human FP Receptor (P43088 whole entry): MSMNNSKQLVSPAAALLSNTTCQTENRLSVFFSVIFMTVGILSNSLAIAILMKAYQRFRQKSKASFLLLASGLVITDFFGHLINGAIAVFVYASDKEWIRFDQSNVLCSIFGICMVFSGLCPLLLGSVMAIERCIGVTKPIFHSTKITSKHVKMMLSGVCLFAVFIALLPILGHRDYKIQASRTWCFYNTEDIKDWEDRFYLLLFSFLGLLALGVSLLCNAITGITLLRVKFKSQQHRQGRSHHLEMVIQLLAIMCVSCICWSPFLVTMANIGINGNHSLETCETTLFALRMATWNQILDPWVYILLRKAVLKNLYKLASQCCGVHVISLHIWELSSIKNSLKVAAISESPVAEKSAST

| SMILES | IC50 |
| --- | --- |
| Cc1c(-c2ccccc2)nc2ccc(Br)cc2c1C(=O)Nc1ncc(C(=O)O)cc1F [Example 6, 6-{[(6-Bromo-3-methyl-2-phenylquinolin-4-yl)carbonyl]amino}-5-fluoronicotinic acid] | 79 nM |
| O=C(O)c1ccc(NC(=O)c2c(Cl)c(-c3ccccc3)nc3ccc(I)cc23)c(F)c1 [Example 75, 4-{[(3-Chloro-6-iodo-2-phenylquinolin-4-yl)carbonyl]amino}-3-fluorobenzoic acid] | 9 nM |
| Cc1c(-c2ccccc2)nc2ccc(Br)cc2c1C(=O)Nc1ccc(C(=O)O)cc1 [Example 1, 4-{[(6-Bromo-3-methyl-2-phenylquinolin-4-yl)carbonyl]amino}benzoic acid] | 166 nM |
| Cc1c(-c2ccccc2)nc2ccc(S(F)(F)(F)(F)F)cc2c1C(=O)Nc1ccc(C(=O)O)cc1F [Example 63, 3-Fluoro-4-({[3-methyl-6-(pentafluoro-λ^6-sulfanyl)-2-phenylquinolin-4-yl]carbonyl}amino)benzoic acid] | 246 nM |
| Cc1c(C(=O)Nc2ccc(C(=O)O)cc2SC(F)(F)F)c2cc(Br)ccc2[n+]([O-])c1-c1ccccc1 [Example 54, 4-{[(6-Bromo-3-methyl-1-oxido-2-phenylquinolin-4-yl)carbonyl]amino}-3-[(trifluoromethyl)sulfanyl]benzoic acid] | 102 nM |
| Cc1c(-c2ccccc2)nc2ccc(Br)cc2c1C(=O)Nc1cnc(C(=O)O)nc1 [Example 4, 5-{[(6-Bromo-3-methyl-2-phenylquinolin-4-yl)carbonyl]amino}pyrimidine-2-carboxylic acid] | 880 nM |
| O=C(O)c1cc(F)c(NC(=O)c2c(C(F)(F)F)c(-c3ccccc3)nc3ccc(Br)cc23)c(Br)c1 [Example 62, 3-Bromo-4-({[6-bromo-2-phenyl-3-(trifluoromethyl)quinolin-4-yl]carbonyl}amino)-5-fluorobenzoic acid] | 301 nM |
| Cc1c(C(=O)Nc2ccc(C(=O)O)cc2F)c2cc(Br)ccc2[n+]([O-])c1-c1ccccc1 [Example 49, 4-{[(6-Bromo-3-methyl-1-oxido-2-phenylquinolin-4-yl)carbonyl]amino}-3-fluorobenzoic acid] | 120 nM |
| Cc1c(-c2ccccc2)nc2ccc(Br)cc2c1C(=O)Nc1ccc(C(N)=O)cc1 [Example 47, 6-Bromo-N-(4-carbamoylphenyl)-3-methyl-2-phenylquinoline-4-carboxamide] | 197 nM |
| Cc1c(-c2ccccc2)nc2ccc(Br)cc2c1C(=O)Nc1c(Cl)cc(C(=O)O)cc1Cl [Example 13, 4-{[(6-Bromo-3-methyl-2-phenylquinolin-4-yl)carbonyl]amino}-3,5-dichlorobenzoic acid] | 150 nM |
| Cc1c(-c2ccccc2)nc2ccc(Br)cc2c1C(=O)Nc1ccc(C(=O)O)cc1OC(F)(F)F [Example 23, 4-{[(6-Bromo-3-methyl-2-phenylquinolin-4-yl)carbonyl]amino}-3-(trifluoromethoxy)benzoic acid] | 57 nM |
| Cc1c(-c2ccccc2)nc2ccc(Br)c(Cl)c2c1C(=O)Nc1ccc(C(=O)O)cc1F [Example 55, 4-{[(6-Bromo-5-chloro-3-methyl-2-phenylquinolin-4-yl)carbonyl]amino}-3-fluorobenzoic acid] | 49 nM |
| Cc1c(-c2ccccc2)nc2ccc(Br)cc2c1C(=O)Nc1ccc(C(=O)O)cc1SC(F)(F)F [Example 28, 4-{[(6-Bromo-3-methyl-2-phenylquinolin-4-yl)carbonyl]amino}-3-[(trifluoromethyl)sulfanyl]benzoic acid] | 17 nM |
| Cc1c(-c2ccccc2)nc2ccc([Si](C)(C)C)cc2c1C(=O)Nc1ccc(C(=O)O)cc1F [Example 36, 3-Fluoro-4-({[3-methyl-2-phenyl-6-(trimethylsilyl)quinolin-4-yl]carbonyl}amino)benzoic acid] | 78 nM |

Continued, values first:

| IC50 | SMILES |
| --- | --- |
| 272 nM | Cc1c(-c2ccccc2)nc2ccc(C(C)C)cc2c1C(=O)Nc1ccc(C(=O)O)cc1F [Example 33, 3-Fluoro-4-{[(6-isopropyl-3-methyl-2-phenylquinolin-4-yl)carbonyl]amino}benzoic acid] |
| 205 nM | Cc1c(-c2ccccc2F)nc2ccc(Br)cc2c1C(=O)Nc1ccc(C(=O)O)cc1F [Example 45, 4-({[6-Bromo-2-(2-fluorophenyl)-3-methylquinolin-4-yl]carbonyl}amino)-3-fluorobenzoic acid] |
| 650 nM | CC(=O)Nc1cc(C(=O)O)ccc1NC(=O)c1c(C)c(-c2ccccc2)nc2ccc(Br)cc12 [Example 19, 3-Acetamido-4-{[(6-bromo-3-methyl-2-phenylquinolin-4-yl)carbonyl]amino}benzoic acid] |
| 560 nM | CCCc1c(-c2ccccc2)nc2ccc(Br)cc2c1C(=O)Nc1ccc(C(=O)O)cc1F [Example 40, 4-{[(6-Bromo-2-phenyl-3-propylquinolin-4-yl)carbonyl]amino}-3-fluorobenzoic acid] |
| 245 nM | CCc1ccc2nc(-c3ccccc3)c(C)c(C(=O)Nc3ccc(C(=O)O)cc3F)c2c1 [Example 32, 4-{[(6-Ethyl-3-methyl-2-phenylquinolin-4-yl)carbonyl]amino}-3-fluorobenzoic acid] |
| 203 nM | Cc1c(-c2ccccc2)nc2ccc(Cl)cc2c1C(=O)Nc1ccc(C(=O)O)cc1F [Example 59, 4-{[(6-Chloro-3-methyl-2-phenylquinolin-4-yl)carbonyl]amino}-3-fluorobenzoic acid] |
| 285 nM | CNC(=O)c1ccc(NC(=O)c2c(C)c(-c3ccccc3)nc3ccc(Br)cc23)c(F)c1 [Example 56, 6-Bromo-N-[2-fluoro-4-(methylcarbamoyl)phenyl]-3-methyl-2-phenylquinoline-4-carboxamide] |
| 437 nM | O=C(O)c1ccc(NC(=O)c2c(C(F)(F)F)c(-c3ccccc3)nc3ccc(Br)cc23)c(F)c1 [Example 57, 4-({[6-Bromo-2-phenyl-3-(trifluoromethyl)quinolin-4-yl]carbonyl}amino)-3-fluorobenzoic acid] |
| 39 nM | O=C(O)c1ccc(NC(=O)c2c(CF)c(-c3ccccc3)nc3ccc(Br)cc23)c(F)c1 [Example 37, 4-({[6-Bromo-3-(fluoromethyl)-2-phenylquinolin-4-yl]carbonyl}amino)-3-fluorobenzoic acid] |
| 25 nM | Cc1c(-c2ccccc2)nc2cc(Cl)c(Br)cc2c1C(=O)Nc1ccc(C(=O)O)cc1F [Example 41, 4-{[(6-Bromo-7-chloro-3-methyl-2-phenylquinolin-4-yl)carbonyl]amino}-3-fluorobenzoic acid] |
| 65 nM | Cc1c(-c2ccccc2)nc2ccc(Br)cc2c1C(=O)Nc1ccc(C(=O)O)cc1Cl [Example 9, 4-{[(6-Bromo-3-methyl-2-phenylquinolin-4-yl)carbonyl]amino}-3-chlorobenzoic acid] |
| 265 nM | O=C(O)c1ccc(NC(=O)c2c(C(F)F)c(-c3ccccc3)nc3ccc(Br)cc23)c(F)c1 [Example 38, 4-({[6-Bromo-3-(difluoromethyl)-2-phenylquinolin-4-yl]carbonyl}amino)-3-fluorobenzoic acid] |
| 17 nM | O=C(O)c1ccc(NC(=O)c2c(Cl)c(-c3ccccc3)nc3ccc(Br)cc23)c(F)c1 [Example 76, 4-{[(6-Bromo-3-chloro-2-phenylquinolin-4-yl)carbonyl]amino}-3-fluorobenzoic acid] |
| 86 nM | Cc1c(-c2ccccc2)nc2ccc(Br)cc2c1C(=O)Nc1ccc(C(=O)O)cc1S(C)(=O)=O [Example 26, 4-{[(6-Bromo-3-methyl-2-phenylquinolin-4-yl)carbonyl]amino}-3-(methylsulfonyl)benzoic acid] |
